Measured values taken from US10760110B2, “Antibiotic testing and screening system” (priority 2017, dated 2020).
≈ marks a conversion by molar mass, not a printed value. Where two headings read alike, the source gives them in different places.

Columns and labels:
[1] = test system: K. pneumoniae NVT1001 and its ΔompK35/36 and/or ΔramR mutants; test: Etest MIC, OmpK35/36 loss and AcrAB-TolC overexpression (ΔramR) strains (Table 6); type: cell-based, Klebsiella pneumoniae
Protocol: (§1) The MICs of antibiotics were determined using the Etest (Biodisk AB, Sweden) according to the manufacturer's instructions. The MICs from the Etest, which fall between standard two-fold dilutions, were rounded up to the next highest two-fold value. The MICs of ceftazidime and cefotaxime against K. pneumoniae NVT1001 harbouring the pACYC177 plasmid with blaOXA-48 were further determined using a broth microdilution test according to the recommendations of the CLSI,^25 and the results were interpreted according to the breakpoints established by the CLSI in 2017.^25 Meanwhile, due to the lack of CLSI breakpoints in 2016 and 2017, the results for cephalothin were interpreted according to the breakpoints established by the CLSI in 2015,^26 and the results for moxifloxacin were interpreted according to the breakpoints established by the EUCAST in 2017.^27

[2] = test system: K. pneumoniae NVT1001 ΔramRΔompK35/36 mutant and its revertants; test: Etest MIC, ΔramRΔompK35/36 mutant and its revertants (Table 7); type: cell-based; settings: Klebsiella pneumoniae
Source text: The allelic-exchange method was used to restore the wild-type gene in the K. pneumoniae NVT1001 mutants with constructed chromosome-mediated resistance mechanisms, as described by Tsai et al.^19 Briefly, a DNA fragment of the entire wild-type gene sequence along with flanking regions was amplified from K. pneumoniae NVT1001 using PCR with specific primers. The resulting PCR fragment was digested and then cloned into pUT-KB. For homologous recombination, this plasmid was transformed into E. coli S17-1 λpir^23 via electroporation and mobilized into the K. pneumoniae NVT1001 mutant via conjugation. […] After incubation in 20 mL BHI broth for 6 hours at 37° C. in the absence of kanamycin, the fully grown cultures were spread onto LB agar plates supplemented with 10% sucrose. After the double crossover occurred, the sucrose-resistant and kanamycin-susceptible colonies were selected, and the restoration of the wild-type gene was confirmed via DNA sequencing.
as §1

[3] = Klebsiella pneumoniae, Δ35, ΔompK35 mutant
[4] = Klebsiella pneumoniae, Δ35/36, ΔompK35/36 mutant
[5] = Klebsiella pneumoniae, Δ36, ΔompK36 mutant
[6] = Klebsiella pneumoniae, ΔramR mutant
[7] = Klebsiella pneumoniae, ΔramRΔ35, ΔramRΔompK35 mutant
[8] = Klebsiella pneumoniae, ΔramRΔ35/36, ΔramRΔompK35/36 mutant
[9] = Klebsiella pneumoniae, ΔramRΔ36, ΔramRΔompK36 mutant
[10] = ΔramRΔompK35/36::ompK35/36 revertant
[11] = ΔramRΔompK35/36::ompK35 revertant
[12] = ΔramRΔompK35/36::ompK36 revertant
[13] = ΔramRΔompK35/36::ramR revertant
[14] = ΔramRΔompK35/36::ramR::ompK35/36 revertant
[15] = ΔramRΔompK35/36::ramR::ompK35 revertant
[16] = ΔramRΔompK35/36::ramR::ompK36 revertant
[17] = Klebsiella pneumoniae, WT, NVT1001, read-out: MIC
[18] = ΔramRΔ35/36, ΔramRΔompK35/36 mutant

Compound	MIC [1, 3] [µg/mL]	MIC [1, 4] [µg/mL]	MIC [1, 5] [µg/mL]	MIC [1, 6] [µg/mL]	MIC [1, 7] [µg/mL]	MIC [1, 8] [µg/mL]	MIC [1, 9] [µg/mL]	MIC [2, 10] [µg/mL]	MIC [2, 11] [µg/mL]	MIC [2, 12] [µg/mL]	MIC [2, 13] [µg/mL]	MIC [2, 14] [µg/mL]	MIC [2, 15] [µg/mL]	MIC [2, 16] [µg/mL]	MIC ([2]; ΔramRΔompK35/36 mutant) [µg/mL]	MIC [1, 17] [µg/mL]	MIC ([1]; WT, NVT1001) [µg/mL]	MIC ([1]; Δ35, ΔompK35 mutant) [µg/mL]	MIC ([1]; Δ35/36, ΔompK35/36 mutant) [µg/mL]	MIC ([1]; Δ36, ΔompK36 mutant) [µg/mL]	also measured
O=C(N[C@H](CO)[C@H](O)c1ccc([N+](=O)[O-])cc1)C(Cl)Cl [Chloramphenicol]	8 (≈ 24.8 µM)	8 (≈ 24.8 µM)	8 (≈ 24.8 µM)	128 (≈ 396 µM)	128 (≈ 396 µM)	128 (≈ 396 µM)	128 (≈ 396 µM)	64	128	64	8	4	4	8	128						MIC ([1]; Klebsiella pneumoniae, WT, NVT1001): 8 µg/mL (≈ 24.8 µM)
C[C@@H]1O[C@@H]1P(=O)(O)O [Fosfomycin]	128 (≈ 927 µM)	512 (≈ 3710 µM)	256 (≈ 1850 µM)	64 (≈ 464 µM)	128 (≈ 927 µM)	> 1020	512 (≈ 3710 µM)	64	512	128	512	128	256	128	> 1020	128 (≈ 927 µM)					
NC[C@H]1O[C@H](O[C@H]2[C@H](O)[C@@H](O[C@H]3O[C@H](CO)[C@@H](O)[C@H](N)[C@H]3O)[C@H](N)C[C@@H]2N)[C@H](O)[C@@H](O)[C@@H]1O [Kanamycin]	2 (≈ 4.13 µM)	4 (≈ 8.26 µM)	2 (≈ 4.13 µM)	2 (≈ 4.13 µM)	2 (≈ 4.13 µM)	2 (≈ 4.13 µM)	2 (≈ 4.13 µM)									2 (≈ 4.13 µM)					
O=C1CN(/N=C/c2ccc([N+](=O)[O-])o2)C(=O)N1 [Nitrofurantoin]	64 (≈ 269 µM)	> 512	> 512	256 (≈ 1070 µM)	256 (≈ 1070 µM)	> 512	> 512	256	> 512	256	> 512	64	> 512	64	> 512	64 (≈ 269 µM)					
NC[C@H]1O[C@H](O[C@H]2[C@H](O)[C@@H](O[C@H]3O[C@H](CO)[C@@H](O)[C@H](N)[C@H]3O)[C@H](N)C[C@@H]2N)[C@H](N)C[C@@H]1O [Tobramycin]	0.5 (≈ 1.07 µM)	0.5 (≈ 1.07 µM)	0.5 (≈ 1.07 µM)	0.5 (≈ 1.07 µM)	0.5 (≈ 1.07 µM)	1 (≈ 2.14 µM)	0.5 (≈ 1.07 µM)									0.5 (≈ 1.07 µM)					
Colistin																	1	1	1	1	MIC ([1]; ΔramR mutant): 1 µg/mL; MIC ([1]; ΔramRΔ35, ΔramRΔompK35 mutant): 1 µg/mL; MIC [1, 18]: 1 µg/mL; MIC ([1]; ΔramRΔ36, ΔramRΔompK36 mutant): 1 µg/mL
Gentamicin																	0.5	0.5	0.5	0.5	MIC ([1]; ΔramR mutant): 0.5 µg/mL; MIC ([1]; ΔramRΔ35, ΔramRΔompK35 mutant): 0.25 µg/mL; MIC [1, 18]: 0.5 µg/mL; MIC ([1]; ΔramRΔ36, ΔramRΔompK36 mutant): 0.5 µg/mL
Polymyxin B																	2	2	2	2	MIC ([1]; ΔramR mutant): 1 µg/mL; MIC ([1]; ΔramRΔ35, ΔramRΔompK35 mutant): 1 µg/mL; MIC [1, 18]: 1 µg/mL; MIC ([1]; ΔramRΔ36, ΔramRΔompK36 mutant): 2 µg/mL
